Test results reported in patent publication US5756491A, “Antiviral cobalt-organic compounds” (priority 1991, dated 1998).

What was measured:
[1] = tested on: RE strain HSV-1; assay: Topical efficacy in RE strain HSV-1-induced stromal keratitis in the rabbit; type: in vivo, NZW rabbit; details: for efficacy ranking, average stromal disease scores: Example 4, FIG. 2; for efficacy ranking during stromal HSV-1 infection: Example 3, all eyes, FIG. 1, 1 mg/ml (TFT 0.1%), 9x/day, 5 days
Method: The following examples describe topical ocular evaluation of the inventive compounds during RE strain HSV-1-induced stromal keratitis in the rabbit. These evaluations included analysis of the topical efficacy of both the inventive compounds alone, or, in certain instances, in combination with trifluorothymidine (TFT). The evaluation was carried out by the combined analysis of both clinical and virological (HSV-1 recovery) parameters. The specified number of NZW rabbits (1.5-2.0 kg) were used. Animals were received at least two days prior to inoculation to allow them to accommodate to the conditions in the vivarium facility. This conditioning of the animals prior to inoculation minimizes animal variability. After the accommodation, the animals received a slit-lamp examination to exclude any animals with pre-existing anterior segment ocular defects. Animals were bi-laterally inoculated by intrastromal injection of 10^5 PFU RE strain HSV-1. The animals were then replaced individually into cages. On day number three post-inoculation (PI), the animals were evaluated by slit-lamp microscopy. Corneal stromal, iris and conjunctival disease were graded on an increasing scale of severity from 0+ to 4+. After evaluation, the animals were divided into a specified number of groups each containing an equal number of animals based on a matched corneal stromal involvement. Topical therapy was initiated immediately after animal groupings. All animals received daily slit-lamp evaluations from day 3 through 7 PI. The ocular HSV-1 induced disease severity was recorded daily. […] Differences in disease resolution and development of stromal alterations are statistically analyzed. Virus recovery during and after topical therapy was compared. The topical efficacy of Compounds 23 and 96 on stromal HSV-1 infection in the rabbit model of stromal keratitis was evaluated. All animals received daily slit lamp evaluations from day 3 through day 7 and on days 9 and 10 PI. The ocular HSV-1-induced disease severity was recorded daily. The topical efficacy of Compounds 23, 96 and 82 on stromal HSV-1 infection in the rabbit model of stromal keratitis was evaluated. All animals received daily slit lamp evaluations for day 3 through day 7 PI. The ocular HSV-1-induced disease severity was recorded daily. The topical efficacy of Compounds 23 and 96 in combination with TFT on stromal HSV-1 infection in the rabbit model of stromal keratitis was evaluated. Groups 1, 2 and 3 each have 5 animals for a total of 10 eyes per combination therapy. This allowed minimization of individual animal variability and performance of a statistical analysis on the results of the combination therapies. Groups 3, 4 and 5 have 2 animals each. These single-agent therapies were used to verify previously reported data on the efficacy of these compounds. The compounds are used at a lower frequency of delivery to match the dosing regimen of the combination-agent group. Consequently, the study also provides comparative information on Compounds 23 and 96 as a lower frequency of topical administration (4 times per day vs. 9 times per day in previous studies).

[2] = tested on: HSV-2 (MS strain); assay: Vaginal virus replication in primary genital HSV-2 infection of guinea pigs; type: in vivo, Female Hartley strain guinea pigs; details: for # Infected/# Inoculated / Mean Peak Virus Titer / P-Value for Mean Peak Virus Titer / Virus Titer-Day Area Under Curve: 20 mg/ml; for infectivity rate: treatment beginning 6 h after infection
Method: A series of studies were carried out to compare the activity of inventive antiviral Compounds 23, 76, and 82 in a primary genital HSV-2 infection of guinea pigs. The experiments were placebo-controlled and uninfected animals were treated with three concentrations of each of the preparations to assess skin irritation and determine the maximum tolerated dose.
The MS strain of HSV-2 was utilized for the experimental animal infection. Female Hartley strain guinea pigs (Charles River Breeding Laboratories, Kingston, N.Y.) weighing 250-300 g were inoculated intravaginally with 1.4×10^5 plaque forming units of HSV-2 one hour after being swabbed for the removal of vaginal secretions.
Groups of 10 infected guinea pigs were treated topically as stated above with 20 mg/ml (the maximum tolerated dose) of each compound beginning 6 h or 24 h after inoculation with HSV-2.
To determine the effect of treatment on vaginal virus replication, swabs of vaginal secretions were obtained on days 1, 3, 5, 7, and 10 after HSV-2 inoculation, placed in a tube containing 2.0 ml of media, vortexed and frozen at -70° until titrated for HSV-2. When all samples were collected, they were thawed, diluted serially and HSV-2 titers were determined using rabbit kidney cells in a microtiter CPE assay. Mean peak virus titers and areas under the virus titer-day curves were calculated and analyzed.
The number of animals infected over the number inoculated, lesion score-day areas and virus titer-day areas under the curve, peak lesion scores and peak virus titers between untreated and placebo-treated or placebo-treatedand drug-treated animals were compared using the Mann-Whitney U rank sum test. A p-value of 0.05 or less was considered significant.

[3] = tested on: VZV; assay: In vitro assay with VZV on HFF monolayers; type: cell-based; details: for virucidal efficacy (VZV titer): Table 20, 7 days PI; for effective virucidal concentration IC50: Table 21, VZV
Method: VZV was grown to a CPE level in vitro assays with VZV of 3-4+ on HFF cell monolayers. The VZV was scraped from the flask, centrifuged and the cell pellet was resuspended in 10 ml of complete medium. One hundred to 200 μl of the VZV cell associated inoculum was inoculated onto confluent HFF cell monolayers by absorption for 60 minutes at 37° C. After absorption of the virus, the inoculum was aspirated from the cell monolayers.
The VZV-infected monolayers were rehydrated with medium containing the appropriate concentrations of compounds to be tested. All monolayers were incubated at 37° C. Development of VZV cytopathology was monitored daily for 7 days by inverted light microscopy. Titers were calculated by multiple regression analysis.
Sham-inoculated, non-treated HFF cell monolayers were included among with the drug-treated monolayers as cell monolayer controls.
VZV inoculated, non-treated HFF monolayers were included as positive controls.

[4] = tested on: HSV-1 McKrae Strain; assay: Intracellular antiviral activity against HSV-1 in HFF monolayers; type: cell-based; details: for antiviral efficacy (HSV-1 titer): Experiment 7 (Table 18), 24 h PI; for effective virucidal concentration IC50: Experiment 7 (Table 19), HSV-1
Method: HSV-1 McKrae Strain was diluted to a final concentration of 10^5 PFU/ml in minimal essential medium (MEM). Hereinafter, this dilution is referred to as the HSV-1 Suspension for convenience.
With sufficient stirring, all the compounds completely dissolved.
HFF cell monolayers were inoculated with the HSV-Suspension prepared as above by absorption for thirty minutes at 37° C. After absorption of the virus, the inoculum was aspirated from the cell monolayers and the HSV-1 infected monolayers were rehydrated with medium containing the appropriate concentration of the solution of the compound by adding 500 microliters of each compound concentration to triplicate HSV-1 infected monolayers. All monolayers were incubated at 37° C. The developing HSV-1 cytopathology was monitored daily for two days by inverted light microscopy and titers were calculated by multiple […] analysis. For the intracellular anti-viral activity, "cell monolayer controls" were obtained using sham inoculated non-treated HFF cell monolayers along with the drug treated monolayers. "Positive controls" were obtained by using HSV-1 inoculated non-CTC compound treated HFF monolayers.

[5] = 0.1 mg/ml, toxicity observation questionable

| Structure (SMILES) | efficacy ranking, average stromal disease scores [1] | # Infected/# Inoculated ([2]; started +6h) | Mean Peak Virus Titer ([2]; started +6h) | P-Value for Mean Peak Virus Titer ([2]; started +6h) | Virus Titer-Day Area Under Curve ([2]; started +6h) | # Infected/# Inoculated ([2]; started +24h) | Mean Peak Virus Titer ([2]; started +24h) | Virus Titer-Day Area Under Curve ([2]; started +24h) | infectivity rate [2] [%] | virucidal efficacy (VZV titer) [3, 5] | virucidal efficacy (VZV titer) ([3]; 2 mg/ml) [PFU/ml] | virucidal efficacy (VZV titer) ([3]; 5 mg/ml) [PFU/ml] | efficacy ranking during stromal HSV-1 infection [1] | antiviral efficacy (HSV-1 titer) ([4]; 0.5 mg/ml) | antiviral efficacy (HSV-1 titer) ([4]; 1 mg/ml) [PFU/ml] | antiviral efficacy (HSV-1 titer) ([4]; 2 mg/ml) [PFU/ml] | antiviral efficacy (HSV-1 titer) ([4]; 5 mg/ml) [PFU/ml] | virucidal efficacy (VZV titer) ([3]; 0.001 mg/ml) | virucidal efficacy (VZV titer) ([3]; 0.01 mg/ml) | effective virucidal concentration IC50 [3] [mg/L] | further results |
| --- | --- | --- | --- | --- | --- | --- | --- | --- | --- | --- | --- | --- | --- | --- | --- | --- | --- | --- | --- | --- | --- |
| CC([O-])=CC(C)=NCCN=C(C)C=C(C)[O-].[Cl-].[Co+3].c1c[nH]cn1.c1c[nH]cn1 [Compound 82] | Compound 96>Compound 82>Compound 23>TFT=Placebo | 5/10 | 1.1 | < 0.001 | 3.3 | 10/10 | 4.6 | 26.4 | 50 | – | – | – | – | – | – | – | – | – | – | – | efficacy relative to Compounds 23 and 96 ([1]; Example 4): intermediate between Compounds 23 and 96; reduction of stromal disease development ([1]; Example 4, 1 mg/ml, severity <0.5+ on day 3 PI): effective in reducing the development of stromal disease; effect on development or progression of stromal disease ([1]; Example 4, severity >0.75): did not alter the development or progression of stromal disease; effect on virus titer AUC ([2]; started +24 h): failed to alter the virus titer AUC |
| CC1=CC(C)=[N+]2CC[N+]3=C(C)C=C(C)[O][Co-3]23([NH3+])([NH3+])[O]1.[Cl-] [Compound 23, reference compound] | Compound 96>Compound 82>Compound 23>TFT=Placebo | 5/10 | 1.1 | < 0.001 | 1.7 | 10/10 | 4.1 | 14.5 | 50 | T? | 0 | 0 | Compound 96>>Compound 23>TFT>Placebo | 0-10^1 PFU/ml | 0 | 0 | 0 | – | – | – | virucidal efficacy (VZV titer) ([3]; 0.5 mg/ml): 0 PFU/ml; virucidal efficacy (VZV titer) ([3]; 1 mg/ml): 0 PFU/ml; efficacy vs TFT therapy ([1]; Example 3, days 7, 9 and 10 PI): superior to TFT therapy; effect on stromal disease severity/progression ([1]; Example 5, FIG. 5, initial stromal disease <0.5 on day 3 PI): slowed the progression of stromal disease; antiviral efficacy (HSV-1 titer) ([4]; 0.01 mg/ml): 10^2 PFU/ml |
| CC(=NCCN=C(C)C(Cl)=C(C)[O-])C(Cl)=C(C)[O-].[Br-].[Co+3].c1c[nH]cn1.c1c[nH]cn1 [Compound 93] | – | – | – | – | – | – | – | – | – | T? | – | – | – | 10^2 PFU/ml | 0 | – | – | 10^4 PFU/ml | 10^2 PFU/ml | 10 | antiviral efficacy (HSV-1 titer) ([4]; 0.001 mg/ml): 10^5 PFU/ml; effective virucidal concentration IC50 [4]: 500 mg/L |
| CC([O-])=CC(C)=NCCN=C(C)C=C(C)[O-].Cc1ncc[nH]1.Cc1ncc[nH]1.[Br-].[Co+3] [Compound 96] | Compound 96>Compound 82>Compound 23>TFT=Placebo | – | – | – | – | – | – | – | – | T? | 0 | 0 | Compound 96>>Compound 23>TFT>Placebo | – | – | 0 | 0 | 10^4 PFU/ml | 10^2 PFU/ml | 10 | comparison with all other therapies in reducing/preventing corneal stromal keratitis ([1]; Example 3): superior to all other therapies in reducing and/or preventing the development of corneal stromal keratitis; scarring vs TFT animals ([1]; Example 3): significantly lower than the scarring in the TFT animals; comparison with compound 23 ([1]; Example 3, all of the therapies used): superior properties in all of the therapies used in the studies as compared to compound 23; efficacy vs other topical therapies ([1]; Example 3, days 4, 5 and 6 PI): significantly better results than the other topical therapies; efficacy vs TFT, Placebo and Compound 23 ([1]; Example 3, eyes with stromal disease <0.75 on day 3 PI): statistically better than TFT, Placebo and Compound 23; difference between Compound 96 single-agent and Compound 96 plus TFT ([1]; Example 5, FIG. 7, <0.5 on day 3 PI): No difference; effect on development and progression of stromal disease ([1]; Example 5, FIG. 7, score <0.5 on day 3 PI, 4 times per day): highly effective and slowed the progression and development stromal disease; antiviral efficacy (HSV-1 titer) ([4]; 0.1 mg/ml): 10^2 PFU/ml; effective virucidal concentration IC50 [4]: 500 to 1000 mg/L |
